According to patent US8722895B2, “Prolyl hydroxylase inhibitors and method of use” (Akebia Therapeutics Inc., priority 2006, dated 2014):

How the values were obtained:
[1] = system: EPO; assay: Mouse Serum EPO Assay (mouse ischemic hindlimb study); assay type: in vivo; details: for EPO response: in vivo response, mouse serum EPO
Protocol: (§1) Mouse Ischemic Hindlimb Study
(§2) All animal work is conducted in accordance with the Guide for the Care and Use of Laboratory Animals (National Academy of Sciences; Copyright® 1996) and the Institutional Animal Care and Use Committee guidelines at Procter and Gamble Pharmaceuticals. We studied 9-10 week old male C57B1/6 mice from Charles River Laboratory (Portage, Mich.). The mice are orally dosed with vehicle (aqueous carbonate buffer, 50 mM; pH 9.0) or compound 1 in vehicle at 50 mg/kg or 100 mg/kg. The animals are dosed three times: day 1 at Sam and 5 pm, day 2 at 8 am. One hour after the first dose, unilateral arterial ligation is performed under anesthesia using isoflurane. The femoral artery is ligated proximal to the origin of the popliteal artery. The contralateral limb underwent a sham surgical procedure. Ligation is performed in an alternating fashion between right and left hindlimbs. Two hours after Sam dosing on day 2, we obtained blood by ventricular stick while the mice are anesthetized with isoflurane. Serum samples for EPO analysis are obtained using gel clot serum separation tubes. Heart, liver, and gastrocnemius muscles are harvested, snap-frozen in liquid nitrogen, and stored in −80° C. until use.
The mouse serum EPO is detected using Mouse Quantikine Erythropoietin ELISA kit from R&D Systems according to manufacturer's instructions.

[2] = system: HIF-1α; assay: Mouse Tissue HIF Western Blot Analysis; assay type: in vivo; details: FIG. 1
Protocol: as §1, §2
Mouse Tissue HIF Western Blot Analysis
Tissues from mice stored at −80° C. are powdered with mortar and pestle chilled with liquid nitrogen. […]

Row | Compound | EPO response [1] | erythropoietin level versus vehicle in mouse serum ([1]; mouse serum after oral dosing, FIG. 2) | stabilization of HIF-1α in mouse liver (immunoblot of nuclear extracts) [2]
1 | COC(=O)CNC(=O)c1ncc(-c2ccccc2Cl)cc1O [{[5-(2-Chlorophenyl)-3-hydroxy-pyridine-2-carbonyl]-amino}-acetic acid methyl ester] | yes |  | 
2 | N#Cc1ccc(-c2cnc(C(=O)NCC(=O)O)c(O)c2)cc1 [{[5-(4-Cyanophenyl)-3-hydroxypyridine-2-carbonyl]amino}-acetic acid] | yes |  | 
3 | {[5-(4-Chlorophenyl)-3-hydroxypyridine-2-carbonyl]amino}-acetic acid | yes |  | 
4 | Cc1ccc(-c2ccc(C(=O)NCC(=O)O)c(O)c2)cc1 [[(3-Hydroxy-4′-methyl-biphenyl-4-carbonyl)-amino]-acetic acid] | yes |  | 
5 | Cc1ccc(-c2cnc(C(=O)NCC(=O)O)c(O)c2)cc1 [[(3-Hydroxy-5-(4-methylphenyl)pyridine-2-carbonyl)amino]-acetic acid] | yes |  | 
6 | COC(=O)CNC(=O)c1ncc(-c2cccc(Cl)c2)cc1O [{[5-(3-Chloro-phenyl)-3-hydroxy-pyridine-2-carbonyl]-amino}acetic acid methyl ester] | yes |  | 
7 | O=C(O)CNC(=O)c1ncc(-c2cccc(Cl)c2)cc1O [{[5-(3-Chlorophenyl)-3-hydroxypyridine-2-carbonyl]amino}-acetic acid] | yes | elevated | stabilization of HIF-1α
8 | O=C(O)CNC(=O)c1ncc(-c2ccccc2Cl)cc1O [{[5-(2-Chlorophenyl)-3-hydroxypyridine-2-carbonyl]amino}-acetic acid] | yes |  | 
